For 65 compounds, IC50 results are on record in patent publication US12581252B2, “Substituted pyrrolo[3,4-b]pyridines as PI3K-α inhibitors” (Relay Therapeutics, Inc., priority 2020, dated 2026).

Structures are written as SMILES.

In this assay the target is H1047R PIK3CA enzyme (Homo sapiens, UniProt P42336, H1047R). In words: ADP-Glo Biochemical PIK3CA Kinase Assay.
Chain of H1047R PIK3CA enzyme (P42336 whole entry H1047R): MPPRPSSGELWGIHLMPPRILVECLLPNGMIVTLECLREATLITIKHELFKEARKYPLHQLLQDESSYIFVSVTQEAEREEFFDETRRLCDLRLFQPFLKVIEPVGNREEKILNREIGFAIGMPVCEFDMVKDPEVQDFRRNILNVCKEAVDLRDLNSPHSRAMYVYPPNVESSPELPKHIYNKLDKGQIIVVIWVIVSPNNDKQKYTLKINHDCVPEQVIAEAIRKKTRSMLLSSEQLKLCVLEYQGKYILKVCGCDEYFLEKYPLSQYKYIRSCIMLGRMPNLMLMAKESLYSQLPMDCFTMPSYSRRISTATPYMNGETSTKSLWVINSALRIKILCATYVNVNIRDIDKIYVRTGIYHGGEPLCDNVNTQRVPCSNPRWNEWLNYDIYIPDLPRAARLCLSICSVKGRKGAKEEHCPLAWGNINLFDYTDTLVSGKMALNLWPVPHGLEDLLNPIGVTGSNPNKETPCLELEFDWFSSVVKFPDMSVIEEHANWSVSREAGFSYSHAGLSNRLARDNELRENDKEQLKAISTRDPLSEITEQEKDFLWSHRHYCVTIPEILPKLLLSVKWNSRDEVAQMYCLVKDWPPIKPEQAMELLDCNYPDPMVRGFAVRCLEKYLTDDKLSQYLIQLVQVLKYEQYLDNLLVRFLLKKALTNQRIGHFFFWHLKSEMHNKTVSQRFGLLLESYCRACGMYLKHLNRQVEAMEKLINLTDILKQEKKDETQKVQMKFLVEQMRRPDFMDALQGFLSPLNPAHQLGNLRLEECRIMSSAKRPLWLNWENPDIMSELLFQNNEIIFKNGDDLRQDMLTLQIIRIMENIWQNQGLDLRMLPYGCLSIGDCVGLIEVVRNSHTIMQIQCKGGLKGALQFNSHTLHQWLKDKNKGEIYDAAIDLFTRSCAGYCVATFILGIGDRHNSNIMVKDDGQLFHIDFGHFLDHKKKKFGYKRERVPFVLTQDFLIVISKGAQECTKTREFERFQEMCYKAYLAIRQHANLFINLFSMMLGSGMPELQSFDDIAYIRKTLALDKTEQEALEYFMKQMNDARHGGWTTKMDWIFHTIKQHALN
Chain of H1047R PIK3CA enzyme (P27986 whole entry partner): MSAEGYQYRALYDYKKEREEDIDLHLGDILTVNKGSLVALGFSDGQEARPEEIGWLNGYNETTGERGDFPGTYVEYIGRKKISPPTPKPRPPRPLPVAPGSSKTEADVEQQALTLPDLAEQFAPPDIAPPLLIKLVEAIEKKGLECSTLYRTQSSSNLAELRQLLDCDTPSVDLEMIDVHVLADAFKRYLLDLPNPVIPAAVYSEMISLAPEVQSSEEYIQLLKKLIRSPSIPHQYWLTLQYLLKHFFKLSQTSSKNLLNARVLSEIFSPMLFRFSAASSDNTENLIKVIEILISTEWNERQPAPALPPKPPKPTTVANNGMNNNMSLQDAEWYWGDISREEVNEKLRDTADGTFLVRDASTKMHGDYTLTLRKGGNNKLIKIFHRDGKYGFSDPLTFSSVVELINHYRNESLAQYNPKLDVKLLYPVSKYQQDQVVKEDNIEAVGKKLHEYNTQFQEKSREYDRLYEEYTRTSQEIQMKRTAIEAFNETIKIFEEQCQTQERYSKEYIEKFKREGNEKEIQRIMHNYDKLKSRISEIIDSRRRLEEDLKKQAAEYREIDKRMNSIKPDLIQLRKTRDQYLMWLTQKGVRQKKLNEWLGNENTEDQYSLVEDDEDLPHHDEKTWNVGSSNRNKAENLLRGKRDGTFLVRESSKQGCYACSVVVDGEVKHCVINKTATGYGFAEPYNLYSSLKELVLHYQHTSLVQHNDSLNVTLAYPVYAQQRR
In general, IC50 refers to the midpoint of a concentration-inhibition curve. The compound `Cn1cc(-c2cc(NC(=O)c3cc(F)cc(C(F)(F)F)c3)c3c(n2)C(=O)NC3c2cc(F)ccc2Cl)ccc1=O` (centres unmarked) [Compound I-547] came in with an IC50 of at most 100 nM.
To `O=C(Nc1cc(-c2ccncc2F)nc2c1C(c1cc(F)ccc1Cl)NC2=O)c1cc(F)cc(C(F)(F)F)c1` (centres unmarked) [Compound I-548] belongs at most 100 nM; to `N#Cc1cnccc1-c1cc(NC(=O)c2cc(F)cc(C(F)(F)F)c2)c2c(n1)C(=O)NC2c1cc(F)ccc1Cl` (centres unmarked) [Compound I-549], at most 100 nM.
`O=C(Nc1ccnc2c1C(c1ccccc1Cl)NC2=O)c1cc(F)c(F)c(Cl)c1` (centres unmarked) [Compound I-550] showed an IC50 of 500 to 1000 nM.
To `CCC(=O)Nc1cc(NC(=O)c2cc(F)cc(C(F)(F)F)c2)c2c(c1)C(=O)NC2c1cc(F)ccc1Cl` (centres unmarked) [Compound I-552] belongs at most 100 nM; to `O=C(Nc1cncc2c1C(c1cc(F)ccc1Cl)NC2=O)c1cc(F)cc(C(F)(F)F)c1` (centres unmarked) [Compound I-553], at most 100 nM.
The compound `CCC(N)(CC)c1cc(NC(=O)c2cc(F)cc(C(F)(F)F)c2)c2c(c1)C(=O)NC2c1cc(F)ccc1Cl` (centres unmarked) [Compound I-554] had a half-inhibitory concentration (IC50) of at most 100 nM.
Next, `NC(=O)c1cc(NC(=O)c2cc(F)cc(C(F)(F)F)c2)c2c(c1)C(=O)NC2c1cc(F)ccc1Cl` (centres unmarked) [Compound I-555]: at most 100 nM.
Next, `CCOc1cc(C(=O)Nc2cc(Br)cc3c2C(c2cc(F)ccc2Cl)NC3=O)ccc1F` (centres unmarked) [Compound I-556]: 1000 to 10000 nM; `O=C1NC(c2cc(F)ccc2Cl)c2c(NC(=O)C3(c4cccc(F)c4)CC3)cc(Br)cc21` (centres unmarked) [Compound I-557]: 1000 to 10000 nM; `O=C(Nc1cc(Br)cc2c1C(c1cc(F)ccc1Cl)NC2=O)c1ccc(F)c(OC(F)F)c1` (centres unmarked) [Compound I-558]: 1000 to 10000 nM.
To `COc1cc(C(=O)Nc2cc(Br)cc3c2C(c2cc(F)ccc2Cl)NC3=O)ccc1F` (centres unmarked) [Compound I-559] belongs 1000 to 10000 nM; to `O=C(Cc1cc(F)ccc1C(F)(F)F)Nc1cc(Br)cc2c1C(c1cc(F)ccc1Cl)NC2=O` (centres unmarked) [Compound I-560], 1000 to 10000 nM.
`O=C(Nc1cc(Br)cc2c1C(c1cc(F)ccc1Cl)NC2=O)c1cnn(-c2ccccc2)c1` (centres unmarked) [Compound I-561]: the concentration for half-maximal inhibition (IC50) is 10000 to 100000 nM.
Next, `O=C1NC(c2cc(F)ccc2Cl)c2c(NC(=O)c3cccn4ccnc34)cc(Br)cc21` (centres unmarked) [Compound I-562]: 10000 to 100000 nM; `O=C(Cc1c(F)ccc(F)c1F)Nc1cc(Br)cc2c1C(c1cc(F)ccc1Cl)NC2=O` (centres unmarked) [Compound I-563]: 10000 to 100000 nM.
As to `O=C(Nc1cc(Br)cc2c1C(c1cc(F)ccc1Cl)NC2=O)c1cc(F)c(F)c(Cl)c1` (centres unmarked) [Compound I-564], the IC50 is at most 100 nM.
Turning to `O=C(Nc1cc(Br)cc2c1C(c1cc(F)ccc1Cl)NC2=O)c1ccc(F)c(Cl)c1` (centres unmarked) [Compound I-565], the 50% inhibitory concentration (IC50) was in the range of 500 to 1000 nM.
To `O=C(Nc1cc(Br)cc2c1C(c1cc(F)ccc1Cl)NC2=O)c1ccc(F)c(C(F)(F)F)c1` (centres unmarked) [Compound I-566] belongs 500 to 1000 nM; to `O=C(Nc1cc(Br)cc2c1C(c1cc(F)ccc1Cl)NC2=O)c1cccc(C(F)(F)F)n1` (centres unmarked) [Compound I-567], 1000 to 10000 nM; to `O=C(Cc1ccccc1C(F)(F)F)Nc1cc(Br)cc2c1C(c1cc(F)ccc1Cl)NC2=O` (centres unmarked) [Compound I-568], 1000 to 10000 nM.
`O=C(Nc1cc(Br)cc2c1C(c1cc(F)ccc1Cl)NC2=O)c1cccc(C2CC2)c1` (centres unmarked) [Compound I-569] gave a 50% inhibitory concentration (IC50) of 1000 to 10000 nM.
`O=C(Nc1cc(Br)cc2c1C(c1cc(F)ccc1Cl)NC2=O)c1cccc(C(F)F)c1` (centres unmarked) [Compound I-570] came in with an IC50 of 1000 to 10000 nM.
Next, `O=C(Nc1cc(Br)cc2c1C(c1cc(F)ccc1Cl)NC2=O)c1ccccc1OC(F)(F)F` (centres unmarked) [Compound I-571]: 1000 to 10000 nM; `O=C(Nc1cc(Br)cc2c1C(c1cc(F)ccc1Cl)NC2=O)c1ccc(C(F)F)cc1` (centres unmarked) [Compound I-572]: 1000 to 10000 nM; `O=C(Nc1cc(Br)cc2c1C(c1cc(F)ccc1Cl)NC2=O)c1cccc(Cl)c1` (centres unmarked) [Compound I-573]: 500 to 1000 nM.
With `O=C1NC(c2cc(F)ccc2Cl)c2c(NC(=O)N3CCCOCC3)cc(Br)cc21` (centres unmarked) [Compound I-574], the IC50 was in the range of 10000 to 100000 nM.
For `O=C(Nc1cc(N2CC(O)C2)nc2c1C(c1cc(F)ccc1Cl)NC2=O)c1cc(F)cc(C(F)(F)F)c1` (centres unmarked) [Compound I-575], the IC50 is at most 100 nM.
To `O=C1NC(c2cc(F)ccc2Cl)c2c(NC(=O)N3CCOCC3)cc(Br)cc21` (centres unmarked) [Compound I-576] belongs 10000 to 100000 nM; to `O=C1NC(c2cc(F)ccc2Cl)c2c(NC(=O)N3CCCCCC3)cc(Br)cc21` (centres unmarked) [Compound I-577], 10000 to 100000 nM; to `NC(=O)Cc1cc(NC(=O)c2cc(F)cc(C(F)(F)F)c2)c2c(c1)C(=O)NC2c1cc(F)ccc1Cl` (centres unmarked) [Compound I-578], at most 100 nM.
`O=C(Nc1cc(CCO)cc2c1C(c1cc(F)ccc1Cl)NC2=O)c1cc(F)cc(C(F)(F)F)c1` (centres unmarked) [Compound I-579]: the half-inhibitory concentration (IC50) is at most 100 nM.
Consider `O=C(Nc1cccc2c1C(c1cc(F)ccc1Cl)NC2=O)c1cc(F)c(F)c(C(F)(F)F)c1` (centres unmarked) [Compound I-580], for which the IC50 is at most 100 nM.
Compound `CC(=O)c1cc(F)cc(C(=O)Nc2cccc3c2C(c2cc(F)ccc2Cl)NC3=O)c1` (centres unmarked) [Compound I-581] showed a half-maximal inhibitory concentration (IC50) of 1000 to 10000 nM.
To `Cn1cc(Br)c(C(=O)Nc2cccc3c2C(c2cc(F)ccc2Cl)NC3=O)n1` (centres unmarked) [Compound I-582] belongs 10000 to 100000 nM; to `Cn1ncc(Br)c1C(=O)Nc1cccc2c1C(c1cc(F)ccc1Cl)NC2=O` (centres unmarked) [Compound I-583], 10000 to 100000 nM.
Next, `Cc1ncc(-c2cc(NC(=O)c3cc(F)cc(C(F)(F)F)c3)c3c(n2)C(=O)NC3c2cc(F)ccc2Cl)cn1` (centres unmarked) [Compound I-584]: at most 100 nM; `O=C(Nc1cc(-c2cncc(F)c2)nc2c1C(c1cc(F)ccc1Cl)NC2=O)c1cc(F)cc(C(F)(F)F)c1` (centres unmarked) [Compound I-585]: at most 100 nM; `CCn1cc(-c2cc(NC(=O)c3cc(F)cc(C(F)(F)F)c3)c3c(n2)C(=O)NC3c2cc(F)ccc2Cl)ccc1=O` (centres unmarked) [Compound I-586]: at most 100 nM.
Take `Cn1cc(-c2cc(NC(=O)c3cc(F)cc(C(F)(F)F)c3)c3c(n2)C(=O)N[C@@H]3c2cc(F)ccc2Cl)ccc1=O` [Compound I-587]: the IC50 lay in the range of 1000 to 10000 nM.
`Cn1cc(-c2cc(NC(=O)c3cc(F)cc(C(F)(F)F)c3)c3c(n2)C(=O)N[C@H]3c2cc(F)ccc2Cl)ccc1=O` [Compound I-588] came in with a concentration for half-maximal inhibition (IC50) of at most 100 nM.
Next, `O=C(Nc1cc(C2COC2)cc2c1[C@@H](c1cc(F)ccc1Cl)NC2=O)c1cc(F)cc(C(F)(F)F)c1` [Compound I-589]: at most 100 nM.
Next, `O=C(Nc1cc(C2COC2)cc2c1[C@H](c1cc(F)ccc1Cl)NC2=O)c1cc(F)cc(C(F)(F)F)c1` [Compound I-590]: at most 100 nM; `CC(C)(O)C(=O)Nc1cc(NC(=O)c2cc(F)cc(C(F)(F)F)c2)c2c(c1)C(=O)NC2c1cc(F)ccc1Cl` (centres unmarked) [Compound I-591]: at most 100 nM; `O=C(Nc1cc(NC(=O)C2(O)CC2)cc2c1C(c1cc(F)ccc1Cl)NC2=O)c1cc(F)cc(C(F)(F)F)c1` (centres unmarked) [Compound I-592]: at most 100 nM.
To `CC(C)n1cc(-c2cc(NC(=O)c3cc(F)cc(C(F)(F)F)c3)c3c(n2)C(=O)NC3c2cc(F)ccc2Cl)ccc1=O` (centres unmarked) [Compound I-593] belongs at most 100 nM; to `O=C1NC(c2cc(F)ccc2Cl)c2c(NC(=O)c3cc(F)cc4cn[nH]c34)cccc21` (centres unmarked) [Compound I-594], 500 to 1000 nM.
As for `O=C1NC(c2cc(F)ccc2Cl)c2c(NC(=O)c3cc(F)cc4cn[nH]c34)cccc21` (centres unmarked) [Compound I-595], the half-inhibitory concentration (IC50) was in the range of 1000 to 10000 nM.
Take `O=C(Nc1cccc2c1C(c1cc(F)ccc1Cl)NC2=O)c1cc(Cl)cc2c1OCC2` (centres unmarked) [Compound I-596]: the IC50 lay in the range of 1000 to 10000 nM.
Regarding `O=C(CC1CCc2ccccc21)Nc1cc(Br)cc2c1C(c1cc(F)ccc1Cl)NC2=O` (centres unmarked) [Compound I-599], the 50% inhibitory concentration (IC50) fell in the range of 10000 to 100000 nM.
In the case of `O=C(CCc1ccccc1C(F)(F)F)Nc1cc(Br)cc2c1C(c1cc(F)ccc1Cl)NC2=O` (centres unmarked) [Compound I-600], the IC50 lay in the range of 1000 to 10000 nM.
Next, `O=C(Nc1cc(Br)cc2c1C(c1cc(F)ccc1Cl)NC2=O)c1cccc2c1OCCC2` (centres unmarked) [Compound I-601]: 10000 to 100000 nM.
In the case of `O=C1NC(c2cc(F)ccc2Cl)c2c(NC(=O)c3cccc4cccnc34)cc(Br)cc21` (centres unmarked) [Compound I-602], the IC50 fell in the range of 1000 to 10000 nM.
Next, `Cc1nc2ccccn2c1CC(=O)Nc1cc(Br)cc2c1C(c1cc(F)ccc1Cl)NC2=O` (centres unmarked) [Compound I-603]: 10000 to 100000 nM; `O=C1NC(c2cc(F)ccc2Cl)c2c(NC(=O)C3(c4ccccc4)CCCC3)cc(Br)cc21` (centres unmarked) [Compound I-604]: 1000 to 10000 nM; `O=C1NC(c2cc(F)ccc2Cl)c2c(NC(=O)C3CCOc4ccccc43)cc(Br)cc21` (centres unmarked) [Compound I-605]: 10000 to 100000 nM.
Regarding `O=C1NC(c2cc(F)ccc2Cl)c2c(NC(=O)c3ccnc4ccc(Cl)cc34)cc(Br)cc21` (centres unmarked) [Compound I-606], the IC50 fell in the range of 10000 to 100000 nM.
The compound `O=C(Nc1cc(Br)cc2c1C(c1cc(F)ccc1Cl)NC2=O)c1ccnc(C(F)(F)F)c1F` (centres unmarked) [Compound I-607] came in with an IC50 of 10000 to 100000 nM.
Next, `CCc1cc(F)cc(C(=O)Nc2cc(Br)cc3c2C(c2ccccc2C)NC3=O)c1` (centres unmarked) [Compound I-608]: 500 to 1000 nM.
Next, `CC1(Nc2cc(NC(=O)c3cc(F)cc(C(F)(F)F)c3)c3c(c2)C(=O)NC3c2cc(F)ccc2Cl)COC1` (centres unmarked) [Compound I-610]: at most 100 nM.
To `COCc1cc(NC(=O)c2cc(F)cc(C(F)(F)F)c2)c2c(c1)C(=O)NC2c1cc(F)ccc1Cl` (centres unmarked) [Compound I-611] belongs at most 100 nM; to `O=C1NC(c2cc(F)ccc2C(F)F)c2c(NC(=O)c3nsc4ccccc34)cc(Br)cc21` (centres unmarked) [Compound I-612], at most 100 nM.
With `O=C(Nc1cc(NC2COC2)cc2c1C(c1cc(F)ccc1Cl)NC2=O)c1cc(F)cc(C(F)(F)F)c1` (centres unmarked) [Compound I-613], the 50% inhibitory concentration (IC50) is at most 100 nM.
To `CCn1cc(-c2cc(NC(=O)c3cc(F)cc(C(F)(F)F)c3)c3c(n2)C(=O)N[C@@H]3c2cc(F)ccc2Cl)ccc1=O` [Compound I-614] belongs 1000 to 10000 nM; to `CCn1cc(-c2cc(NC(=O)c3cc(F)cc(C(F)(F)F)c3)c3c(n2)C(=O)N[C@H]3c2cc(F)ccc2Cl)ccc1=O` [Compound I-615], at most 100 nM.
